Data on 8 compounds can be found in BindingDB's records for doi:10.1006/frne.1999.0183 (Royal Victoria Hospital, 1999).

Starred links: 1 amine or outer side, 2 acyl side, 3 side chain; linkers in the order of their positions; H or OH if unused. Non-standard residues stand in square brackets, D forms with d. Residues, ends and D or L forms follow the SMILES beside them. *: point of attachment. pNA = O=[N+]([O-])c1ccc(N*)cc1; Nle = CCCC[CH](N)C(=O)O; CO = O=C([*:1])[*:2]

In assay [1] the target is Somatostatin receptor type 4 (Homo sapiens, UniProt P31391).
Sequence of Somatostatin receptor type 4 (P31391 whole entry): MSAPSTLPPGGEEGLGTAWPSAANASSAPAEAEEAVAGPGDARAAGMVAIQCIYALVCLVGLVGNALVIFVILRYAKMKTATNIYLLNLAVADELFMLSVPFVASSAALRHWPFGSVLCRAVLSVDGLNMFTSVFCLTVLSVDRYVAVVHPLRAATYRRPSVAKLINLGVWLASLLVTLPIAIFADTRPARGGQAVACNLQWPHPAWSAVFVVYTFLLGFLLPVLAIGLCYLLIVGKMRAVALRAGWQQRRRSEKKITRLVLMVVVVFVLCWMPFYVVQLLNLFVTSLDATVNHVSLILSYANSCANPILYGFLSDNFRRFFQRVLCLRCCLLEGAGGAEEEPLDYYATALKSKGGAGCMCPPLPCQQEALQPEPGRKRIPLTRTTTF
In assay [2] the target is Somatostatin receptor type 5 (Homo sapiens, UniProt P35346).
Sequence of Somatostatin receptor type 5 (P35346 whole entry): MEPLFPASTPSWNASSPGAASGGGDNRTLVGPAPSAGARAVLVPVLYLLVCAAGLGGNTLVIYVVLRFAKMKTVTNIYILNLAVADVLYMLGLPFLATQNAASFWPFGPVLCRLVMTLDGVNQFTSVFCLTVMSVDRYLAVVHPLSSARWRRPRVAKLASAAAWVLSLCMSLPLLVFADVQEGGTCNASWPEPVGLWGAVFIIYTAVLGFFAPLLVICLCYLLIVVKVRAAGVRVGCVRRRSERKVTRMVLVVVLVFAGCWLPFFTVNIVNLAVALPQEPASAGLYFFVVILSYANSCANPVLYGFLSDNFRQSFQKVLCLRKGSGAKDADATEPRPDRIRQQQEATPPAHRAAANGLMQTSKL
For assay [3], the target named is Somatostatin receptor type 1 (Homo sapiens, UniProt P30872).
Sequence of Somatostatin receptor type 1 (P30872 whole entry): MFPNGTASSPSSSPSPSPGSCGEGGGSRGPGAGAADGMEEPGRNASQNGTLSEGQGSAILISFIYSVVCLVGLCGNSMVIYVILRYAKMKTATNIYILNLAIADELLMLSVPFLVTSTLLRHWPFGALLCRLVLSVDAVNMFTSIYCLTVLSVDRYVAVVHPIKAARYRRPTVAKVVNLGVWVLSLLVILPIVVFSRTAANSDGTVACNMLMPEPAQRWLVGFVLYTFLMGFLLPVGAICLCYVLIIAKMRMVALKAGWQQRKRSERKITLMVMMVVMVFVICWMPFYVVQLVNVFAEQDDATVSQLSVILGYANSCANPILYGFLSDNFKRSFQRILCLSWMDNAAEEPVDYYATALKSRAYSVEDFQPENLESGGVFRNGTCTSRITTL
Assay [4] deals with Somatostatin receptor type 3 (Homo sapiens, UniProt P32745).
Sequence of Somatostatin receptor type 3 (P32745 whole entry): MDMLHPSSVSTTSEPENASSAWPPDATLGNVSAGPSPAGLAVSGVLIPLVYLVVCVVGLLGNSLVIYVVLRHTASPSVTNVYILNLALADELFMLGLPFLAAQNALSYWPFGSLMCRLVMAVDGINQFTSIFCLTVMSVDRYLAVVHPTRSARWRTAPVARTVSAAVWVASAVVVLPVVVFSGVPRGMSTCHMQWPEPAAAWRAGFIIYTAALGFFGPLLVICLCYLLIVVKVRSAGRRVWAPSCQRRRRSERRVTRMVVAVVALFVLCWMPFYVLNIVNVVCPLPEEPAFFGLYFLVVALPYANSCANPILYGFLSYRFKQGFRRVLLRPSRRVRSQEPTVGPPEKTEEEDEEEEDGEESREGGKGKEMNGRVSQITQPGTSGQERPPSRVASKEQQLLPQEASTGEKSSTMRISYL
In assay [5] the target is Somatostatin receptor type 2 (Homo sapiens, UniProt P30874).
Sequence of Somatostatin receptor type 2 (P30874 whole entry): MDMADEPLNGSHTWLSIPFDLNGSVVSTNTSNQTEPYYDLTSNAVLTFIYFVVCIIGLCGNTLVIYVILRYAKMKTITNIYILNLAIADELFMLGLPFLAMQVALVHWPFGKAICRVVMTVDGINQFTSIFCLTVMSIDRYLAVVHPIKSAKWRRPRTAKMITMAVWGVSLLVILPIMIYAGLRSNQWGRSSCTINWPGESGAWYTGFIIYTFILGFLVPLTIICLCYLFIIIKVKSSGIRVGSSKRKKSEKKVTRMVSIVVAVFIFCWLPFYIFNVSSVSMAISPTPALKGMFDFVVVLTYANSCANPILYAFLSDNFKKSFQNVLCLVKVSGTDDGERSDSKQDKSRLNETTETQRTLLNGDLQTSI

Broadly, the Ki is the equilibrium dissociation constant of an inhibitor or competing ligand from its target. Low values mean a stronger hold on the target, high ones a looser hold on the target. On to `C[C@H](N)COC(=O)[C@H](CCCCN)NC(=O)Cc1c(-c2ccc3ccccc3c2)[nH]c2c1ccc1ccccc12`, for which the inhibition constant (Ki) worked out at 82 nM in assay [1]; 0.4 nM in assay [2]; 3.3 nM in assay [3]; 64 nM in assay [4]; 52 nM in assay [5].

Take `CC(c1c[nH]c2ccccc12)C(NC(=O)N1CCC(n2c(=O)[nH]c3ccccc32)CC1)C(=O)NCC1CCCC(CN)C1` (stereo unspecified) [CAS_5311372]: the Ki is 310 nM in assay [1]; 4260 nM in assay [2]; 2760 nM in assay [3]; 729 nM in assay [4]; 0.05 nM in assay [5].

Turning to `CCCCC(NC(=O)NC(Cc1ccccc1)C(=O)Nc1ccc([N+](=O)[O-])cc1)C(=O)NC(CCCCN)C(=O)OC` (stereo unspecified) [CAS_5311373] ({pNA-Phe-CO}-[Nle]-Lys-OMe; configuration not given here), the inhibition constant Ki in assay [1] is 8650 nM; in assay [2] it was 1200 nM; in assay [3], 1260 nM; in assay [4], 24 nM; in assay [5], above 10000 nM.

Take `CC(C)NCc1ccc(C[C@@H]2NC(=O)[C@@H](Cc3c[nH]c4ccccc34)NC(=O)[C@H](Cc3ccccc3)NC(=O)[C@H](Cc3ccccc3)NC(=O)[C@H](CCCCN)NC(=O)[C@@H](N)CSSC[C@@H](C(=O)O)NC(=O)[C@H](CO)NC(=O)[C@H]([C@@H](C)O)NC(=O)[C@H](Cc3ccccc3)NC(=O)[C@H]([C@@H](C)O)NC2=O)cc1` [CH-275] (HELM PEPTIDE1{C.K.F.F.[dW].[CC(C)NCc1ccc(C[C@H](N[*:1])C(=O)[*:2])cc1].T.F.T.S.C}$PEPTIDE1,PEPTIDE1,1:R3-11:R3$$$V2.0): the Ki stood at 4.3 nM in assay [1], 1000 nM in assay [2], 3.2 nM in assay [3] and 1000 nM in assay [4].

`CSCC[C@H](NC(=O)[C@H](CCCN=C(N)N)NC(=O)[C@@H](N)CC(=O)O)C(=O)N1CCC[C@H]1C(=O)N[C@H]1CSSC[C@@H](C(=O)N[C@@H](CCCCN)C(=O)O)NC(=O)[C@H](CO)NC(=O)[C@H](CO)NC(=O)[C@H](Cc2ccccc2)NC(=O)[C@H]([C@@H](C)O)NC(=O)[C@H](CCCCN)NC(=O)[C@H](Cc2c[nH]c3ccccc23)NC(=O)[C@H](Cc2ccccc2)NC(=O)[C@H](Cc2ccccc2)NC(=O)[C@H](CC(N)=O)NC(=O)[C@H](CCCN=C(N)N)NC1=O` [Cortistatin]: the Ki in assay [1] is 0.5 nM; in assay [2], 0.4 nM; in assay [3], 7 nM; in assay [4], 0.6 nM; in assay [5], 0.6 nM.

For `COC(=O)C(CCCNC(=N)N)NC(=O)CCCc1c(-c2ccccc2)[nH]c2c(F)cc(F)cc12` [L-803,087], the Ki in assay [1] is 0.7 nM; in assay [2], 3880 nM; in assay [3], 199 nM; in assay [4], 1280 nM; in assay [5] it was 4720 nM.

For the compound `CC(CCN)CC(C)(C)CNC(=O)[C@@H](Cc1cccc2ccccc12)NC(=O)N(CCc1ccccc1)CCc1ccccn1` (stereo partly drawn) [L-797591], the Ki came to 170 nM in assay [1]; 3600 nM in assay [2]; 1.4 nM in assay [3]; 2240 nM in assay [4]; 1870 nM in assay [5].

Turning to `CC(C)[C@@H]1NC(=O)[C@H](CCCCN)NC(=O)[C@@H](Cc2c[nH]c3ccccc23)NC(=O)[C@H](Cc2ccc(O)cc2)NC(=O)[C@H](C)N(C)C(=O)[C@H](Cc2ccccc2)NC1=O` [seglitide], the values for the Ki in assay [3] and in assay [4] were 1000 nM and 27 nM, respectively.
